Literature values as cited in patent US10213524B2, “Coating comprising strontium for body implants” (ELOS MEDTECH PINOL A/S, priority 2012, dated 2019).

System: mice
Conditions: intravenous injection

CC(=O)[O-].CC(=O)[O-].[Sr+2] [strontium acetate]
toxic concentration (can cause mortality): ~40 mg/kg Sr
